This is an account of results in patent US4954156A, “N,N-dihalo-2-imidazolidinones and N-halo-2-oxazolidinones as urease and nitrification inhibitors” (Tennessee Valley Authority, priority 1989, dated 1990).

Series [1] has as its system nitrification of ammonium nitrogen in soil. Nature of the series: Soil nitrification inhibition test (Mountainview silt loam, banded). The note with it: for percent nitrification inhibition: separate experiment (Examples VII, IX): sampled only at end of 5-week incubation, no dicyandiamide comparison; for % inhibition (nitrification) / Net mg NO2N / Net mg NO3N: 25° C, 410 mg urea + 41 mg inhibitor. The protocol: Embodiment 2: The N-Halamine compounds were tested for nitrification inhibition using the soil testing procedure described below.
Mountainview silt loam soil was screened through a 2 mm sieve. Plexiglas containers (8×8×6 cm) were packed half full with the soil and packed to a bulk density of 1.0 g/cm^3 and wetted to field capacity (approximately 20 weight percent moisture). The urea 410 mg per container) and inhibitor (41 mg per container) were added in a narrow band (0.5 cm wide X 6 cm long), and additional soil was added to fill the containers. The total amount of dry soil added was 384 g. The containers were incubated at 25° C. During incubation the containers were checked periodically for moisture loss and additional water added as needed to maintain moisture levels.
The individual containers were removed from the incubator at 1, 2, 3, 4, and 5 week intervals. After removal from the incubator the contents of the container were transferred to a plastic bag and thoroughly mixed. A 10-g sample of soil (dry basis) was taken from the bag and extracted with 100 ml of 2 N KCL. The extract was filtered through Whatman #41 filter paper and refrigerated until analyzed. Samples were analyzed for NO3-N- NO2-N- and urea-N using a colorimetric procedure. Some samples also were analyzed for NH4-N.
The percent nitrification inhibition was calculated according to the method of Bundy and Bremner [G. L. Bundy and J. M. Bremner, Soil Sci. Soc. Am. Proc. 37, 396-398 (1973)]
% nitrification inhibition=[(C-S)/C]×100
where C=net amount of NO3-N produced in the control (no inhibitor added), and S=net amount of NO3-N produced in the inhibitor treated sample.
^a Concentrations are in net mg/container. All containers had 384 g
soil (dry), 410 mg urea (188.6 mg N) and 41 mg inhibitor. Samples were
extracted 10 g → 100 mls 2N KCl. The formulas used for calculation
where C = net NO3N produced in control (no inhibitor), S = net
NO3N produced in inhibitor treated sample, net NO3N =
(NO3N) - (soil NO3N), and net NO2N = (NO2N) - (soil
NO2N). Values are averages of two replicate samples.

Series [2] addresses purified Jack Bean urease (Canavalia ensiformis, UniProt P07374). Nature of the series: Aqueous system (pH stat) urease inhibition test. Type of series: biochemical. The note with it: 25° C. The method, then:
(§1) Embodiment 1: Urease activity of inhibitor test compounds may be evaluated either in aqueous or in soil systems. When aqueous systems are used, urea plus a test compound with possible urease inhibition activity and relatively pure urease enzyme are incubated together to determine the effects of the test compound on urease-catalyzed hydrolysis of urea. When soil systems are used, urea and the test compound are added to moist soil, and the urease enzyme is supplied from the soil. The main disadvantage of using soil systems is that the true activity of test compounds may be masked because of reactions between the test compound and soil. Thus, basic studies for understanding chemical structure-activity relationships are usually done in aqueous systems.
Aqueous System (pH Stat) Test Procedure: The aqueous system urease inhibition tests were conducted at 25° C using purified Jack Bean urease enzyme, 50,000-80,000 units per gram, a unit of urease will liberate 1 umole of NH3 from urea per minute at pH 7.0 at 25° C.
An appropriate amount of inhibitor [such as 37.0 uL (microliters) of a 1.169×10^(-3) M (moles/liter) inhibitor solution] and 100 uL of a solution of 13.9130 mg Jack Bean urease enzyme in 10.00 mL of water were diluted to 25.00 mL. This combined solution was allowed to sit undisturbed at 23° C. for twenty (20) minutes. Then 20.0 uL of a preservative solution was added to prevent degradation of the urease enzyme during the course of the experiment. The preservative solution contained 5.655×10^-4 moles/liter ethylenediaminetetraacetic acid (disodium salt) and 1.166×10^-3) moles/liter dithiothreitol.
Immediately after the addition of the preservative solution to the inhibitor/urease solution, 800 uL of a 0.1246 M urea solution was added and a computer assisted titrimeter was started. This titrimeter maintained a constant pH of 6.97 during the course of the experiment by neutralizing the ammonia (resulting from urease hydrolysis of urea) with 0.01142 M hydrochloric acid (HCl). The volume (measured to 0.001 mL) of HCl added was automatically recorded every 15 seconds for up to 20.0 minutes or until a total volume of 2.500 mL of HCl was added.
Experiments also were conducted without inhibitor (blank) and with the inhibitor PPDA for comparison. The experiments were replicated, and the percent inhibition for each of the inhibitors at the various concentrations was calculated as follows:
% inhibition=(kinhibitor /kblank)×100 (4)
where kinhibitor and kblank are the average rates of HCl addition for the inhibitor and blank experiments, respectively. The rates of HCl addition were calculated by linear regression of the titration curves.

Series [3] has as its system soil urease (urease-active Hastings silt loam soil). Nature of the series: Banded soil system urease inhibition test (Hastings silt loam). The note with it: 410 mg urea + 41 mg inhibitor. The method, then:
as §1
Soil System Test Procedure: The soil system test procedure used was a modification of the previous procedures of other researchers L. A. Douglas and J. M. Bremner, Soil Biol. Biochem. 3, 309-315 (1971) and J. M. Bremner and R. L. Mulvaney, "Urease Activity in Soils," Soil Enzymes 5, R. G. Burns, editor, Academic Press, 149-195 (1978)]. In this modified procedure powdered mixtures of urea and test compounds were applied in narrow bands in the soil rather than being mixed throughout the soil. The banded configuration also results in concentration gradients of urea, urea hydrolysis products, test compounds, and test compound decomposition products similar to those in the immediate vicinity of urea granules containing the test compounds. Another advantage of the banded configuration compared with mixing throughout the soil is that slightly soluble test compounds can be easily band applied, whereas it is difficult to achieve a known degree of mixing of a small quantity of slightly soluble test compound with soil. The banded configuration also enables testing for urease inhibition under realistic soil conditions prior to the development of techniques for cogranulating a wide range of test compounds with urea.
A detailed description of the banded soil testing procedure follows. Urease-active soil (Hastings silt loam) was moistened to a moisture content of 20 percent dry weight basis) and preincubated at room temperature for two days. Plexiglas containers (6×6×6 cm) were half filled with soil and packed to a bulk density of 1.0 g/cm . Urea (410 mg) or urea (410 mg) plus inhibitor (41 mg, thoroughly mixed with the urea) was distributed in a narrow band about 0.5 cm wide and 6 cm long on the soil surface. The containers then were filled with soil, again packing to a bulk density of 1.0 g/cm^3. The containers were incubated at 25° C. for the desired reaction period, after which the containers were frozen to about -5° C. to stop urea hydrolysis. Immediately prior to extracting the remaining urea from the soil, said soil was allowed to thaw. Soil from each container was thoroughly mixed, and a 10-g sample was extracted with 100 ml of 2 M KCl containing phenylmercuric acetate to prevent urea hydrolysis during handling [L. A. Douglas and J. M. Bremner, Soil. Sci. Soc. Am. Proc. 34, 859-862 (1970)]. Urea in the extracts was determined colorimetrically as a measure of unhydrolyzed urea and the results expressed as percent unhydrolyzed urea-N.
^a The plexiglas containers measured 6 × 6 × 6 cm.
Hastings silt loam soil was utilized and packed to a bulk density of 1
gm/cm^3 dry basis. The soil was wet to near field capacity (20%
moisture) and 260 g of wetted soil (216 g dry soil) was added per
container. The containers were packed half full, urea and inhibitor were
added, and the remaining soil was added. The amount of urea added = 410 m

Where “and” joins values, the source holds several entries; their conditions need not be identical. Equal entries are not always repeated.

Sequence of purified Jack Bean urease (P07374 whole entry, looked up): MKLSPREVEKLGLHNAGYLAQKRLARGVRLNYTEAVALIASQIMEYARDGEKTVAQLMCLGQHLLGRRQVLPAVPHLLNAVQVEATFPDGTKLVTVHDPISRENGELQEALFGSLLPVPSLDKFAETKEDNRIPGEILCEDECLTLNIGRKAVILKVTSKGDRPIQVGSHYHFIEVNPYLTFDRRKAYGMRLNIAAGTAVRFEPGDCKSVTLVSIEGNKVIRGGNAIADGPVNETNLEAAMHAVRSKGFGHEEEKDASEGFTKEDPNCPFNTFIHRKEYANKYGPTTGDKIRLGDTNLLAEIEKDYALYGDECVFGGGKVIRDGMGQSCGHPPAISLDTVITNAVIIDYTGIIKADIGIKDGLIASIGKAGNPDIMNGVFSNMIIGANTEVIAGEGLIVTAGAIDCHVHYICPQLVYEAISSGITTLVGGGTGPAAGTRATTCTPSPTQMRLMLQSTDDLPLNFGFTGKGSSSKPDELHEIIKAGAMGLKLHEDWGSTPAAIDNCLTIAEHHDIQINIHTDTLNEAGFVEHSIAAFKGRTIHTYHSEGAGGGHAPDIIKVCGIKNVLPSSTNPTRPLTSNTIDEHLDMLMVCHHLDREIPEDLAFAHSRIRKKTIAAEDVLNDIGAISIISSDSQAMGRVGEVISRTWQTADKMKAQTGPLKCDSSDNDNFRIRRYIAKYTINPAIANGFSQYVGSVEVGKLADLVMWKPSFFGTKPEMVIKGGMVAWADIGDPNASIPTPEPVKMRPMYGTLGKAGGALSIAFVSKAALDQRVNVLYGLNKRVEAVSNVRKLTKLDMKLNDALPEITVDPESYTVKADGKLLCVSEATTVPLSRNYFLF

In series [1], `CC1(C)N(Cl)C(=O)N(Cl)C1(C)C` [A, 1,3-dichloro-4,4,5,5-tetramethyl-2-imidazolidinone] had a percent nitrification inhibition of 41.8%. Further, the “% urease inhibition” value came out at 86% in series [2] (inhibitor 1.440 x 10^-8 moles/experiment), 95% in series [2] (inhibitor 2.160 x 10^-8 moles/experiment) and 100% in series [2] (inhibitor 4.320 x 10^-8 moles/experiment).

Turning to `CC1(C)N(Cl)C(=O)N(Br)C1(C)C` [ABC, 1-bromo-3-chloro-4,4,5,5-tetramethyl-2-imidazolidinone], the “% unhydrolyzed urea-N” value in series [3] (3 days incubation at 25° C) was 84.71% and 84.7%; in series [3] (6 days incubation at 25° C) it was 53.65% and 53.7%. Moreover, the results for the “PPM urea-N” value in series [3] (3 days incubation at 25° C) and in series [3] (6 days incubation at 25° C) were 75.0 PPM and 47.5 PPM, respectively. In addition, the “% inhibition (nitrification)” value was 100.0% in series [1] (1 week); 100.0% in series [1] (2 weeks); 100.0% in series [1] (3 weeks); 100.0% in series [1] (4 weeks); 99.6% in series [1] (5 weeks). Further, the “Net mg NO2N” value in series [1] (1 week) was -0.05 mg/container; in series [1] (2 weeks) it was 0.04 mg/container; in series [1] (3 weeks) it was 0.08 mg/container; in series [1] (4 weeks) it was 1.68 mg/container; in series [1] (5 weeks) it was 1.67 mg/container. For the same molecule, the “Net mg NO3N” value in series [1] (1 week) is recorded as 0.0 mg/container; in series [1] (2 weeks), 0.0 mg/container; in series [1] (3 weeks), 0.0 mg/container; in series [1] (4 weeks), 0.0 mg/container; in series [1] (5 weeks) it was 0.8 mg/container. Moreover, the “Nitrite accumulation in the soil” value in series [1] (during the 5 weeks incubation, greater than with dicyandiamide) is listed as “well within plant tolerance levels”. Also, the percent nitrification inhibition in series [1] is 85.6%. In addition, the “% urease inhibition” value is recorded as 93% in series [2] (inhibitor 0.432 x 10^-8 moles/experiment) and 100% in series [2] (inhibitor 1.430 x 10^-8 moles/experiment).

Consider `NP(N)(=O)Oc1ccccc1` [PPDA, Phenyl phosphorodiamidate, reference compound], for which the “% unhydrolyzed urea-N” value in series [3] (3 days incubation at 25° C) was 94.31% and 94.3%; in series [3] (6 days incubation at 25° C), 58.73% and 58.7%. Moreover, the “PPM urea-N” value in series [3] (3 days incubation at 25° C) is 83.5 PPM; in series [3] (6 days incubation at 25° C), 52 PPM. For the same molecule, the “% urease inhibition” value in series [2] (inhibitor 0.108 x 10^-8 moles/experiment) came to 99%; in series [2] (inhibitor 0.216 x 10^-8 moles/experiment) it was 100%.
